As a reminder, the half-life is the time in which the quantity being followed falls by half. Read a low half-life as rapid decline. As a reminder, the bioavailability is the share of a dose that reaches the circulation, judged against a reference dose that is usually intravenous. Low readings indicate poor availability, high ones good availability.

For data set [1], the target named is T1, rAMY3R (Rattus norvegicus, UniProt P32214+Q9JJ73).
T1 sequence (P32214 25-479 isoform P32214-2 limits assumed): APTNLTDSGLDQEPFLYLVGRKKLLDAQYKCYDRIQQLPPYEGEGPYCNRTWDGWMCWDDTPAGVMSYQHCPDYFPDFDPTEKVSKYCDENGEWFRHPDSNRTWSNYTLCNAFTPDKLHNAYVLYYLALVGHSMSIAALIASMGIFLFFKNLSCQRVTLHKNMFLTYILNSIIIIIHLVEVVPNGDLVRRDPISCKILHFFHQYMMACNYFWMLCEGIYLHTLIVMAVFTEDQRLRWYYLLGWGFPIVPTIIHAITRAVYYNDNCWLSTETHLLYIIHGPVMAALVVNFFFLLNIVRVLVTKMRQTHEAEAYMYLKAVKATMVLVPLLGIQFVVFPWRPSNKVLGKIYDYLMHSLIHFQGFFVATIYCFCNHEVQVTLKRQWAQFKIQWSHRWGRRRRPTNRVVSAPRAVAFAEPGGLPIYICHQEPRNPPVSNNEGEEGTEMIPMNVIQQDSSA
T1 sequence (Q9JJ73 23-147 partner): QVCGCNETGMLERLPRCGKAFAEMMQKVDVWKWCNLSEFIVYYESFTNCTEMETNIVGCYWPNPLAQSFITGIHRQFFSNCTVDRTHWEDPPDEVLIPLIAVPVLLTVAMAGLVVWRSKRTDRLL
As to the kind of experiment: Species-specific cAMP assay, rAMY3R. The following applies: ratio of cAMP EC50 values, rat receptors. A general note: cAMP levels reflect the balance of adenylyl cyclase and phosphodiesterase activity.

Data set [2] deals with T2, hAMY3R (Homo sapiens, UniProt O60896+P30988).
T2 sequence (P30988 25-474): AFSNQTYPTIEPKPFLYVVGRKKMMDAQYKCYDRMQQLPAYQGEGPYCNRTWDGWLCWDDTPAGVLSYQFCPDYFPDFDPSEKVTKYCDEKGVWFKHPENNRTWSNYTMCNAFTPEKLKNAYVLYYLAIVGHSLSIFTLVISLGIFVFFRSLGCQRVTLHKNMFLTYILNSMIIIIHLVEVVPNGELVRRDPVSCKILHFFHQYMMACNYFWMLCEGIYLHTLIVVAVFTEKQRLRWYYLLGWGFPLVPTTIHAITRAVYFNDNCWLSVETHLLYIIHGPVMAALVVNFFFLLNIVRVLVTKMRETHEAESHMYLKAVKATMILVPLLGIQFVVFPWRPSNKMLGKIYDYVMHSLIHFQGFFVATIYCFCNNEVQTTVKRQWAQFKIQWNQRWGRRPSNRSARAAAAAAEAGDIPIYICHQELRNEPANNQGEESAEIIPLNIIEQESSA
T2 sequence (O60896 24-148 partner): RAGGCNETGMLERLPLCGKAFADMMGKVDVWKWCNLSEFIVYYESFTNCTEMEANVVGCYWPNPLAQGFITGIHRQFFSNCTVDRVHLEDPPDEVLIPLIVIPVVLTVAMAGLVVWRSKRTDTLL
Briefly: Whole-cell competition binding, hAMY3R. The following applies: IC50 for the CTR divided by that of the AMYR, human receptors. On the set-up: expressed in transfected cells; host or cells: BHK tk-ts 13, transient co-transfection; whole cells for the species-specific assays.

Data set [3] has as its target T2, hAMY3R. Briefly: Species-specific cAMP assay, hAMY3R. The following applies: ratio of cAMP EC50 values, human receptors.
The subject of data set [4] is cAMY1R. As to the kind of experiment: Whole-cell competition binding, cAMY1R. The following applies: IC50 for the CTR divided by that of the AMYR, canine receptors.
Data set [5] can be described thus: in vivo. The following applies: male, Sprague-Dawley, rat, iv.
Procedure: (§1) Blood samples were collected at fixed time points postdose to determine full PK profiles. Plasma samples were analyzed by ELISA. Plasma concentration–time profiles were analyzed by noncompartmental analysis.
(§2) Pharmacokinetic Evaluation. Rats: Male Sprague-Dawley rats (Taconic, Europe; body weight
(§3) approximately 400 g) were group-housed under controlled temperature conditions (20 °C ± 2 °C).
(§4) Blood was collected from the sublingual vein and rats were acclimated to handling on three separate
occasions prior to blood collection.
(§5) the tail vein of five rats. Sc injections were performed in the neck of another group of five rats. The
dosing volume was 2 mL/kg.
(§6) collected into test tubes containing EDTA for stabilization and kept on ice until centrifugation. Each
(§7) blood sample was 100 µL. Plasma was separated from whole blood by centrifugation and was stored at
–20 °C or lower until analysis.
Data set [6] deals with DIO rats. As to the kind of experiment: DIO rat weight loss assay. Type of data set: in vivo. The following applies: for Absolute body weight Day 21: mean ± SEM; for reduction in body weight relative to baseline: 21 days, n = 8/group. The procedure:
The ability of NN1213 to reduce body weight was tested in DIO rats fed an HFD. Rats were dosed once daily sc with either vehicle or NN1213 (n = 8–10 per group). Food intake and body weight were measured daily on individually housed rats. […] Body fat and lean mass are expressed as changes from baseline.
VetXX, Specific CCD, Dechra, UK).
eaten within 30 min. […] In figure 4, mean accumulated food
rats were assessed in DIO rats.
controlled temperature conditions (22 °C).
Pharmacokinetic Evaluation.
Species n administration (nmol/kg) (h)

Data set [7] is described as follows: Pharmacokinetics in rats. The following applies: male, Sprague-Dawley, rat, plasma, sc, 5 nmol/kg.
Procedure: as §1, §2, §3, §4
occasions prior to blood collection.
as §5
dosing volume was 2 mL/kg.
as §6, §7
–20 °C or lower until analysis.
Data set [8] concerns the target T3, mAMY3R (Mus musculus, UniProt Q60755+Q9WUP1).
T3 sequence (Q60755 42-496 isoform Q60755-2 limits assumed): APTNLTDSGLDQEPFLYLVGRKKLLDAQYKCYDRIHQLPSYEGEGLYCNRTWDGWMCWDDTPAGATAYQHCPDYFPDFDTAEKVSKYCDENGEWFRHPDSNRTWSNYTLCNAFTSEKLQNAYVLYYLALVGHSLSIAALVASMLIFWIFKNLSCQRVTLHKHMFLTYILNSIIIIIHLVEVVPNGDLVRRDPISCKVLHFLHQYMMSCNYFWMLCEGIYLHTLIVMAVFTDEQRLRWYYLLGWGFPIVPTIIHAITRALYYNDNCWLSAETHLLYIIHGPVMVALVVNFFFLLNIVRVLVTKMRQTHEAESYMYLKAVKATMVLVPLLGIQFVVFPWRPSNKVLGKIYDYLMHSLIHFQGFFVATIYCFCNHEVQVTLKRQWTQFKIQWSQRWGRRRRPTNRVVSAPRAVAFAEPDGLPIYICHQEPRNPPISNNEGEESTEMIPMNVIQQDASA
T3 sequence (Q9WUP1 24-147 partner limits assumed): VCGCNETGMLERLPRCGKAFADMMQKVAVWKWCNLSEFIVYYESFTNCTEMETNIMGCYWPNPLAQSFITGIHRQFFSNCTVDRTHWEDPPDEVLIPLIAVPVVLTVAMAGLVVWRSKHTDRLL
As to the kind of experiment: Mouse receptor cAMP HTRF assay (BacMam, HeLa), mAMY3R. The following applies: ratio of cAMP EC50 values, mouse receptors.
Procedure: Mouse Receptors (Functional Assay Only). Cell culture: HeLa cells were cultured in an incubator at 37 °C and 5% CO2, in cell culture medium (DMEM with 10% [v/v] FBS, 1% [w/w] penicillin/streptomycin).
Cell seeding in T75 flasks (day 1): The day before transfection of the cells, 2 x 10^6 HeLa cells were seeded in three T75 flasks and incubated overnight. Media was removed from 1–2 T175 flasks and cells were washed once with Dulbecco PBS (with Mg2+ and Ca2+). Cells were detached with 2 mL TrypLE Express for 5 min in an incubator. Five mL pre-warmed media was added to each T75 flask and mixed with the cell suspension. Cells were counted in 100 µL of this suspension. The cell suspension was centrifuged at 1200 rpm for 4 min and the supernatant was discarded. The cells were re-suspended in media and 2 x 10^6 cells were seeded in approximately 15 mL in each of the three T75 flasks. The flasks were incubated overnight.
with 20 µL poly-d-lysin/well for 2–3 h at 37 °C. The plates were washed twice with PBS and allowed
Transfection of cells (day 2): Reagents were acclimated to room temperature for 30 min. Media was
removed from the T75 flasks, and cells were washed once with PBS (with Mg2+ and Ca2+). Cells were
Seeding of transfected cells in assay plates (day 2): Following the 3-h transduction, T75 flasks were
washed once with PBS (with Mg2+ and Ca2+). […]
mL pre-warmed media and counted.

For data set [9], the system named is cCTR. As to the kind of experiment: Species-specific cAMP assay, cCTR. The following applies: cAMP HTRF, transiently transfected BHK cells, 30 min room temperature, five experiments.

For the compound `CC[C@H](C)[C@H](NC(=O)[C@H](C)NC(=O)CNC(=O)[C@H](Cc1ccccc1)NC(=O)[C@H](CC(N)=O)NC(=O)[C@@H]1CCCN1C(=O)[C@H](CO)NC(=O)[C@H](CO)NC(=O)[C@H](Cc1c[nH]cn1)NC(=O)[C@H](CCCNC(=N)N)NC(=O)[C@H](CC(C)C)NC(=O)[C@H](Cc1ccccc1)NC(=O)[C@H](CC(=O)O)NC(=O)[C@H](C)NC(=O)[C@H](CC(C)C)NC(=O)[C@H](CCCNC(=N)N)NC(=O)[C@H](CCC(N)=O)NC(=O)[C@@H](NC(=O)[C@H](C)NC(=O)[C@@H]1CSSC[C@H](NC(=O)[C@@H](N)CCCCNC(=O)CC[C@H](NC(=O)CC[C@H](NC(=O)CCCCCCCCCCCCCCCCCCC(=O)O)C(=O)O)C(=O)O)C(=O)N[C@@H](CC(N)=O)C(=O)N[C@@H]([C@@H](C)O)C(=O)N[C@@H](C)C(=O)N[C@@H]([C@@H](C)O)C(=O)N1)[C@@H](C)O)C(=O)N1CCC[C@H]1C(=O)N[C@@H](CO)C(=O)N[C@@H](CO)C(=O)N[C@H](C(=O)N[C@@H](CC(N)=O)C(=O)N[C@H](C(=O)NCC(=O)N[C@@H](CO)C(=O)N[C@@H](CCCNC(=N)N)C(=O)N[C@H](C(=O)N[C@@H](Cc1ccc(O)cc1)C(N)=O)[C@@H](C)O)C(C)C)[C@@H](C)O` [NN1213], in data set [1], the “Ratio CTR/AMY3R (rat, functional)” value was 144. The “Ratio CTR/AMY3R (human, binding)” value in data set [2] is given as 67. Moreover, in [3], the “Ratio CTR/AMY3R (human, functional)” value is recorded as 51. In data set [4], the “Ratio CTR/AMY1R (canine, binding)” value is 73. The compound also showed a half-life in data set [5] of 24 h. In addition, the “Absolute body weight Day 21” value in data set [6] (3 µg/kg (0.7 nmol/kg) sc once daily) came to 705.5 ± 38.4 g; in data set [6] (10 µg/kg (2.2 nmol/kg) sc once daily), 664.4 ± 19.3 g; in [6] (30 µg/kg (6.6 nmol/kg) sc once daily), 682.4 ± 27.7 g; in data set [6] (100 µg/kg (22 nmol/kg) sc once daily) it was 667.8 ± 11.9 g. Moreover, the “body weight lost after 21 days” value in data set [6] (high-dose group (22 nmol/kg) sc once daily) is 69.6 ± 7.5 g; in data set [6] (low-dose group 0.7 nmol/kg sc once daily), 32.0 ± 3.6 g. The “reduction in body weight relative to baseline” value in data set [6] (sc once daily 0.7 nmol/kg) was 4.7%; in data set [6] (sc once daily 2.2, 6.6, 22 nmol/kg doses) it was 8.7–9.3%. This compound also returned a bioavailability in [7] of about 40%. The “Ratio CTR/AMY3R (mouse, functional)” value in data set [8] was found to be 24. Besides, the “cCTR pEC50” value in data set [9] was determined as 9.39.

The values above are taken from article PMC11284788, “NN1213 – A Potent, Long-Acting, and Selective Analog of Human Amylin” (Journal of Medicinal Chemistry, 2024).
